Entries after “also recorded” stand apart in the source; their conditions may differ.
Assays:
Type in all cases: in vivo, rat
cyclooxygenase-2 (COX-2) = experiment: Assay A: cyclooxygenase-2 immunostaining of hearts; settings: angiotensin II-infused, saline-drinking Wistar rats, eplerenone 100 mpk, aldosterone replacement in adrenalectomized rats
[1] = Assay B: aldosterone infusion model, systolic blood pressure by radio-telemetry; settings: uni-nephrectomized Sprague Dawley rats, 1% NaCl, aldosterone 0.75 mg/hr sc, 4 weeks, eplerenone 100 mpk p.o
Experimental: (§1) Assay B: In Vivo Aldosterone Infusion Model
Male Sprague Dawley rats (n=39; BW=250 g)
Uni-nephrectomy performed during implantation of mini-pumps
2. Aldosterone (0.75 mg/hr, sc via alzet minipump)
1. Aldosterone (0. 75 mg/hr, sc via alzet minipump)+0.6% KCl in the drinking fluid
Groups 1, 2 and 3 received only 0.3% KCl in the drinking solution
SBP measured by radio-telemetry probes inserted in the abdominal aorta

osteopontin [2] = experiment: Assay B: osteopontin immunohistochemistry in the heart; settings: aldosterone-infused, saline-drinking, uninephrectomized rats, eplerenone 100 mpk p.o, increased dietary potassium
Experimental: as §1
Determination of osteopontin and COX-2 was performed by quantitative RT-PCR (Taqman). Osteopontin was also identified in the heart by immunohistochemistry.

Collagen I = experiment: Assay C: Collagen I mRNA, TaqMan; settings: 30 days, compared to vehicle+salt controls
Experimental: (§2) The procedure of Assay B was expanded upon in a further study. […] Myocardial tissue from animals in each treatment group was examined after 7, 14, or 30 days of treatment.
(§3) Potassium chloride supplementation was added to the saline solution in order to prevent the potential hypokalemia associated with aldosterone excess.
(§4) Treatment At the time of the surgery, an Alzet 2002 osmotic minipump (Alza Corp., Palo Alto, Calif.) containing either vehicle (9% ethanol/87% propylene glycol/4% dH2O) or 1.0 mg/mL d-aldosterone (Sigma Chemical, St. Louis, Mo.) was inserted subcutaneously at the nape of the neck. Aldosterone was administered at a dose of 0.75 µg/hour. […]
(§5) The fluorogenic 5′-nuclease assay (TaqMan PCR) using Applied Biosystems' 7700 Sequence Detection System (Applied Biosystems, Foster City, Calif.) allowed for real time detection/quantitation of a specific gene by monitoring the increase in fluorescence of a gene-specific, dye-labeled oligonucleotide probe. […] When the probe was annealed to the target gene, fluorescence of 6FAM was prevented by the close proximity of TAMRA. The exonuclease activity of Taq polymerase released the dyes from the oligonucleotide probe by displacing the probe from the target sequence resulting in fluorescence excitation in direct proportion to the amount of target message present. […]

osteopontin [3] = experiment: Assay C: Osteopontin mRNA, TaqMan; settings: 7, 14, 30 days; aldosterone+salt alone or with eplerenone 100 mg/kg/day
Experimental: as §2, §3, §4, §5

[4] = system: Monocyte Chemoattractant Protein-1 (MCP-1); experiment: Assay C: MCP-1 mRNA, TaqMan; settings: 7, 14, 30 days; aldosterone+salt alone or with eplerenone 100 mg/kg/day
Experimental: as §2, §3, §4, §5

SMILES | Cyclooxygenase-2 expression in the heart (immunostaining) (cyclooxygenase-2 (COX-2)) | Systolic blood pressure [1] | Osteopontin expression in the heart (immunostaining) (osteopontin [2]) | Collagen type-I message (Collagen I) | Osteopontin mRNA expression in myocardium (osteopontin [3]) | MCP-1 mRNA expression in myocardium [4] | Cyclooxygenase-2 expression in the heart (immunostaining) (cyclooxygenase-2 (COX-2); listed as Eplerenone) | Systolic blood pressure ([1]; listed as Eplerenone) | Osteopontin expression in the heart (immunostaining) (osteopontin [2]; listed as Eplerenone)
C[C@]12CCC(=O)C=C1CC[C@@H]1[C@@H]2[C@@H](O)C[C@]2(C=O)[C@@H](C(=O)CO)CC[C@@H]12 [aldosterone] | restored the presence of cycloxygenase-2 in coronary arteries | increased; also recorded: systolic blood pressure elevation | clearly identified in the media of coronary arteries | modest increase | markedly upregulated | significantly increased | – | – | –
COC(=O)[C@@H]1CC2=CC(=O)CC[C@]2(C)[C@@]23O[C@@H]2C[C@@]2(C)[C@@H](CC[C@@]24CCC(=O)O4)[C@H]13 [eplerenone] | prevention by eplerenone of induction of COX-2 expression | depression of this elevation | prevention by eplerenone of induction of osteopontin expression; also recorded: prevention by eplerenone of osteopontin upregulation | modest increase | significantly reduced; also recorded: inhibition of early time-course expression of myocardial osteopontin | significantly reduced; also recorded: inhibition of early time-course expression of myocardial MCP-1 | markedly reduced and in most cases completely prevented the expression of cycloxygenase-2 | significantly reduced, but did not normalize blood pressure | prevented the expression of osteopontin

— patent publication US20040037806A1, “Aldosterone blocker therapy to prevent or treat inflammation-related disorders” (Pharmacia Corporation, priority 2002, published 2004)
